# Measurements published in US20240343733A1, “COMPOUNDS FOR TARGETING DEGRADATION OF IRAK4 PROTEINS” (BIOGEN MA INC., priority 2021, published 2024).
# Target: T1, IRAK4 (Homo sapiens, UniProt Q9NWZ3)
# T1 construct: 293Tcells expressing HiBiT-tagged IRAK4 were then added into 384-well plates
# T1 sequence (Q9NWZ3 1-460): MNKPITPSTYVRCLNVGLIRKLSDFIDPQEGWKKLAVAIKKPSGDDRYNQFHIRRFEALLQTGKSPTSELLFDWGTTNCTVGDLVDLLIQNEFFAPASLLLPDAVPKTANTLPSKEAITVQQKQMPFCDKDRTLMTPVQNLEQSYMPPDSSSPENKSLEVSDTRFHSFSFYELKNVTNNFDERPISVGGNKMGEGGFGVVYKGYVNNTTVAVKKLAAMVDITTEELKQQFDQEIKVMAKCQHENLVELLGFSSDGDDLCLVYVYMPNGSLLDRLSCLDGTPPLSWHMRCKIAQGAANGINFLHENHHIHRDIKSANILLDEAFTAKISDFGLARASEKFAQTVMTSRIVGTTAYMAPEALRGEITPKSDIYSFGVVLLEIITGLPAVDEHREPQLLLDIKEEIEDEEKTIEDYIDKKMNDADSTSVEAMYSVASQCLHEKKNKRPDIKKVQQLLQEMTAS
# Assay: IRAK4 Degradation Assay, HiBiT Method
# Type: cell-based
# Conditions: 293T cells expressing HiBiT-tagged IRAK4, 6 hours
# Outline: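 Luminescent read-out with Nano-Glo HiBiT lytic reagent after 6 h compound exposure at 37 °C. Cells were HiBiT-IRAK4 knock-in 293T (C-terminal tag), 10,000 per well. Compounds ran as 11-point half-log dilutions from […] highest dose, duplicate wells; DMSO served as negative control.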
row,SMILES,DC50
1,"CC(C)Oc1cc2nc([C@H]3CC[C@H](CN4CCC(c5cc6c(cc5F)c(N5CCC(=O)NC5=O)nn6C)C(F)(F)C4)CC3)cn2cc1C(=O)Nc1cnn2cccnc12 (some centres unmarked) [Example 170, 2-((1r,4r)-4-((4-(3-(2,4-dioxotetrahydropyrimidin-1(2H)-yl)-5-fluoro-1-methyl-1H-indazol-6-yl)-3,3-difluoropiperidin-1-yl)methyl)cyclohexyl)-7-isopropoxy-N-(pyrazolo[1,5-a]pyrimidin-3-yl)imidazo[1,2-a]pyridine-6-carboxamide]",10 to 100 nM
2,"CC(C)Oc1cc2nc([C@H]3CC[C@H](CN4CCC(c5ccc6c(c5)oc(=O)n6C5CCC(=O)NC5=O)CC4)CC3)cn2cc1C(=O)Nc1cnn2cccnc12 (some centres unmarked) [Example 173, 2-((1r,4r)-4-((4-(3-(2,6-dioxopiperidin-3-yl)-2-oxo-2,3-dihydrobenzo[d]oxazol-6-yl)piperidin-1-yl)methyl)cyclohexyl)-7-isopropoxy-N-(pyrazolo[1,5-a]pyrimidin-3-yl)imidazo[1,2-a]pyridine-6-carboxamide]",< 10 nM
3,CC(C)Oc1cc2nc([C@H]3CC[C@H](CNCC4(O)CCN(c5ncc(C6CCC(=O)NC6=O)cc5F)CC4)CC3)cn2cc1C(=O)Nc1cnn2cccnc12 (some centres unmarked) [Example 176],< 10 nM
4,"CC(C)Oc1cc2nc([C@H]3CC[C@H](CN4CC[C@H](c5ccc6c(N7CCC(=O)NC7=O)nn(C)c6c5)[C@H](O)C4)CC3)cn2cc1C(=O)Nc1cnn2cccnc12 [Example 177, 2-((1S,4r)-4-(((3S,4R)-4-(3-(2,4-dioxotetrahydropyrimidin-1(2H)-yl)-1-methyl-1H-indazol-6-yl)-3-hydroxypiperidin-1-yl)methyl)cyclohexyl)-7-isopropoxy-N-(pyrazolo[1,5-a]pyrimidin-3-yl)imidazo[1,2-a]pyridine-6-carboxamide]",< 10 nM
5,"CC(C)Oc1cc2nc([C@H]3CC[C@H](CN4CC[C@H](c5ccc6c(N7CCC(=O)NC7=O)nn(C)c6c5)[C@H](O)C4)CC3)cn2cc1C(=O)Nc1cccn(C2CC2)c1=O [Example 178, N-(1-cyclopropyl-2-oxo-1,2-dihydropyridin-3-yl)-2-((S,4r)-4-(((3S,4R)-4-(3-(2,4-dioxotetrahydropyrimidin-1(2H)-yl)-1-methyl-1H-indazol-6-yl)-3-hydroxypiperidin-1-yl)methyl)cyclohexyl)-7-isopropoxyimidazo[1,2-a]pyridine-6-carboxamide]",< 10 nM
6,"CC(C)Oc1cc2nc([C@H]3CC[C@H](CN4CC5(CCN(c6ncc(N7CCC(=O)NC7=O)cc6F)CC5)C4)CC3)cn2cc1C(=O)Nc1cnn2cccnc12 [Example 181, 2-((1r,4r)-4-((7-(5-(2,4-dioxotetrahydropyrimidin-1(2H)-yl)-3-fluoropyridin-2-yl)-2,7-diazaspiro[3.5]nonan-2-yl)methyl)cyclohexyl)-7-isopropoxy-N-(pyrazolo[1,5-a]pyrimidin-3-yl)imidazo[1,2-a]pyridine-6-carboxamide]",< 10 nM
7,"CC(C)Oc1cc2nn([C@H]3CC[C@H](CN4CC[C@H](c5cc6c(cc5F)c(N5CCC(=O)NC5=O)nn6C)[C@H](O)C4)CC3)cc2cc1C(=O)Nc1cccn([C@H]2C[C@H]2F)c1=O [Example 184, 2-((1S,4S)-4-(((3S,4R)-4-(3-(2,4-dioxotetrahydropyrimidin-1(2H)-yl)-5-fluoro-1-methyl-1H-indazol-6-yl)-3-hydroxypiperidin-1-yl)methyl)cyclohexyl)-N-(1-((1S,2R)-2-fluorocyclopropyl)-2-oxo-1,2-dihydropyridin-3-yl)-6-isopropoxy-2H-indazole-5-carboxamide]",< 10 nM

# Other lines, results leading:
row,DC50,SMILES
1,< 10 nM,"CC(C)Oc1cc2nc([C@H]3CC[C@H](CN4CCC(c5ccc6c(c5)n(C)c(=O)n6C5CCC(=O)NC5=O)CC4)CC3)cn2cc1C(=O)Nc1cccn(C2CC2)c1=O (some centres unmarked) [Example 167, N-(1-cyclopropyl-2-oxo-1,2-dihydropyridin-3-yl)-2-((1r,4r)-4-((4-(1-(2,6-dioxopiperidin-3-yl)-3-methyl-2-oxo-2,3-dihydro-1H-benzo[d]imidazol-5-yl)piperidin-1-yl)methyl)cyclohexyl)-7-isopropoxyimidazo[1,2-a]pyridine-6-carboxamide]"
2,10 to 100 nM,"CC(C)Oc1cc2nc([C@H]3CC[C@H](CN4CCC(c5ccc6c(c5)n(C)c(=O)n6C5CCC(=O)NC5=O)C(F)(F)C4)CC3)cn2cc1C(=O)Nc1cccn([C@H]2C[C@H]2F)c1=O (stereo partly drawn) [Example 168, 2-((1r,4S)-4-((4-(1-(2,6-dioxopiperidin-3-yl)-3-methyl-2-oxo-2,3-dihydro-1H-benzo[d]imidazol-5-yl)-3,3-difluoropiperidin-1-yl)methyl)cyclohexyl)-N-(1-((1S,2R)-2-fluorocyclopropyl)-2-oxo-1,2-dihydropyridin-3-yl)-7-isopropoxyimidazo[1,2-a]pyridine-6-carboxamide]"
3,< 10 nM,"CC(C)Oc1cc2nc([C@H]3CC[C@H](CN4CC[C@H](c5ccc6c(N7CCC(=O)NC7=O)nn(C)c6c5)[C@H](O)C4)CC3)cn2cc1C(=O)Nc1cccn([C@H]2C[C@H]2F)c1=O [Example 171, 2-((1S,4S)-4-(((3S,4R)-4-(3-(2,4-dioxotetrahydropyrimidin-1(2H)-yl)-1-methyl-1H-indazol-6-yl)-3-hydroxypiperidin-1-yl)methyl)cyclohexyl)-N-(1-((1S,2R)-2-fluorocyclopropyl)-2-oxo-1,2-dihydropyridin-3-yl)-7-isopropoxyimidazo[1,2-a]pyridine-6-carboxamide]"
4,10 to 100 nM,"CC(C)Oc1cc2nc([C@H]3CC[C@H](CN4CCC(c5cc6c(cc5F)c(N5CCC(=O)NC5=O)nn6C)C(F)(F)C4)CC3)cn2cc1C(=O)Nc1cccn([C@H]2C[C@H]2F)c1=O (some centres unmarked) [Example 172, 2-((1r, 4S)-4-((4-(3-(2,4-dioxotetrahydropyrimidin-1 (2H)-yl)-5-fluoro-1-methyl-1H-indazol-6-yl)-3,3-difluoropiperidin-1-yl)methyl)cyclohexyl)-N-(1-((1 S, 2R)-2-fluorocyclopropyl)-2-oxo-1,2-dihydropyridin-3-yl)-7-isopropoxyimidazo[1,2-a]pyridine-6-carboxamide]"
5,10 to 100 nM,"CC(C)Oc1cc2nc([C@H]3CC[C@H](CN4CCC(c5ncc(NC6CCC(=O)NC6=O)cc5F)CC4)CC3)cn2cc1C(=O)Nc1cccn(C2CC2)c1=O (some centres unmarked) [Example 174, N-(1-cyclopropyl-2-oxo-1,2-dihydropyridin-3-yl)-2-((1r,4r)-4-((4-(5-((2,6-dioxopiperidin-3-yl)amino)-3-fluoropyridin-2-yl)piperidin-1-yl)methyl)cyclohexyl)-7-isopropoxyimidazo[1,2-a]pyridine-6-carboxamide]"
6,< 10 nM,"CC(C)Oc1cc2nc([C@H]3CC[C@H](CN4CCC(c5ccc6c(c5)oc(=O)n6C5CCC(=O)NC5=O)CC4)CC3)cn2cc1C(=O)Nc1cccn([C@H]2C[C@H]2F)c1=O (stereo partly drawn) [Example 175, 2-((1r,4S)-4-((4-(3-(2,6-dioxopiperidin-3-yl)-2-oxo-2,3-dihydrobenzo[d]oxazol-6-yl)piperidin-1-yl)methyl)cyclohexyl)-N-(1-((1S,2R)-2-fluorocyclopropyl)-2-oxo-1,2-dihydropyridin-3-yl)-7-isopropoxyimidazo[1,2-a]pyridine-6-carboxamide]"
7,< 10 nM,"CC(C)Oc1cc2nc([C@H]3CC[C@H](CN4CC5(CCN(c6ncc(N7CCC(=O)NC7=O)cc6F)CC5)C4)CC3)cn2cc1C(=O)Nc1cccn([C@H]2C[C@H]2F)c1=O [Example 179, 2-((1r,4S)-4-((7-(5-(2,4-dioxotetrahydropyrimidin-1(2H)-yl)-3-fluoropyridin-2-yl)-2,7-diazaspiro[3.5]nonan-2-yl)methyl)cyclohexyl)-N-(1-((1S,2R)-2-fluorocyclopropyl)-2-oxo-1,2-dihydropyridin-3-yl)-7-isopropoxyimidazo[1,2-a]pyridine-6-carboxamide]"
8,10 to 100 nM,"CC(C)Oc1cc2nc([C@H]3CC[C@H](CN4CCN(c5ccc(C6CCC(=O)NC6=O)cn5)CC4)CC3)cn2cc1C(=O)Nc1cccn([C@H]2C[C@H]2F)c1=O (stereo partly drawn) [Example 180, 2-((1r,4S)-4-((4-(5-(2,6-dioxopiperidin-3-yl)pyridin-2-yl)piperazin-1-yl)methyl)cyclohexyl)-N-(1-((1S,2R)-2-fluorocyclopropyl)-2-oxo-1,2-dihydropyridin-3-yl)-7-isopropoxyimidazo[1,2-a]pyridine-6-carboxamide]"
9,< 10 nM,"CC(C)Oc1cc2nc([C@H]3CC[C@H](C(=O)NC4CCN(c5ccc(C6CCC(=O)NC6=O)cn5)CC4)CC3)cn2cc1C(=O)Nc1cnn2cccnc12 (some centres unmarked) [Example 182, 2-((1r,4r)-4-((1-(5-(2,6-dioxopiperidin-3-yl)pyridin-2-yl)piperidin-4-yl)carbamoyl)cyclohexyl)-7-isopropoxy-N-(pyrazolo[1,5-a]pyrimidin-3-yl)imidazo[,2-a]pyridine-6-carboxamide]"
10,< 10 nM,"CC(C)Oc1cc2nc(C3CCN(C(=O)CC4CC5(C4)CN(c4ccc(C6CCC(=O)NC6=O)cn4)C5)CC3)cn2cc1C(=O)Nc1cccn([C@H]2C[C@H]2F)c1=O (stereo partly drawn) [Example 183, 2-(1-(2-(2-(5-(2,6-dioxopiperidin-3-yl)pyridin-2-yl)-2-azaspiro[3.3]heptan-6-yl)acetyl)piperidin-4-yl)-N-(1-((1S,2R)-2-fluorocyclopropyl)-2-oxo-1,2-dihydropyridin-3-yl)-7-isopropoxyimidazo[1,2-a]pyridine-6-carboxamide]"
